Patent US4206156A, “Hydroxyaminohydrocarbonphosphonic acids” (Fujisawa Pharmaceutical Company, Limited, priority 1976, dated 1980)
Structures can show the parent of a compound that is named as a salt.

Legend:
[1] = system: Pseudomonas aeruginosa 1101-76; assay: Protecting effect in experimental mice infections; format: in vivo, mice (ICR-strain); conditions: Pseudomonas aeruginosa 1101-76, 1.2 × 10^6 viable cells per mouse, survival 1 week
Method: Male mice of ICR-strain, aged 4 weeks and weighing 24±1 g., were used. Each experimental group consists of 8 animals.
A prescribed amount of pathogenic bacteria, suspended in 5% aqueous Mucin solution (0.5 ml.), was intraperitoneally injected into the test animals.
Subsequently, the above test compound in water (0.25 ml.) was administered to each of the test animals, subcutaneously three times at 0, 1, 3 hours or orally once at 1 hour after the infection of pathogenic bacteria, respectively.

[2] = system: Citrobacter freundii 1381-3; assay: M.I.C., serial agar dilution, nutrient agar (inoculum 10^6 cells/ml); format: cell-based; conditions: 13813, 37° C., 20 hours
Method: (§1) M.I.C. test was conducted by the usual serial agar dilution method, (inoculum:10^6 cells/ml.), using a nutrient agar which was incubated at 37° C. for 20 hours. M.I.C. value is expressed as the minimum concentration of the monoammonium salt of 3-(N-formyl-N-hydroxyamino)-propylphosphonic acid (mcg/ml.) which inhibits growth of microorganisms.

[3] = system: Klebsiella pneumoniae NCTC 418; assay: as above; format: cell-based; conditions: NCTC418, 37° C., 20 hours
Method: as §1

[4] = system: Serratia marcescens 1421-4; assay: as above; format: cell-based; conditions: 14214, 37° C., 20 hours
Method: as §1

[5] = system: Salmonella paratyphi A-1015; assay: as above; format: cell-based; conditions: Salmonella enterica, 20 h
Method: as §1

[6] = system: Salmonella typhi 0-901; assay: as above; format: cell-based; conditions: Salmonella enterica, 20 h
Method: as §1

[7] = system: Staphylococcus aureus FDA209P JC-1; assay: as above; format: cell-based; conditions: 37° C., 20 hours
Method: as §1

[8] = system: Sarcina lutea PCI 1001; assay: as above; format: cell-based; conditions: Micrococcus luteus, PCI1001, 37° C., 20 hours
Method: as §1

[9] = system: Escherichia coli 1341-18(R); assay: as above; format: cell-based; conditions: 20 h
Method: as §1

[10] = system: Shigella sonnei I EW33; assay: as above; format: cell-based; conditions: IEW33, 37° C., 20 hours
Method: as §1

[11] = system: Escherichia coli NIHJ JC-2; assay: as above; format: cell-based; conditions: NIHJJC2, 37° C., 20 hours
Method: as §1

[12] = system: Salmonella typhimurium 1406; assay: as above; format: cell-based; conditions: Salmonella enterica, 37° C., 20 hours
Method: as §1

[13] = system: Enterobacter cloacae 1401-4; assay: as above; format: cell-based; conditions: 14014, 37° C., 20 hours
Method: as §1

[14] = system: Proteus mirabilis 1432-75; assay: as above; format: cell-based; conditions: 143275, 37° C., 20 hours
Method: as §1

[15] = system: Proteus rettgeri 1434-3; assay: as above; format: cell-based; conditions: Providencia rettgeri, 14343, 37° C., 20 hours
Method: as §1

[16] = system: Proteus inconstans 1436-21; assay: as above; format: cell-based; conditions: Providencia alcalifaciens, 143621, 37° C., 20 hours
Method: as §1

[17] = system: Shigella flexneri IaEW8; assay: as above; format: cell-based; conditions: 37° C., 20 hours
Method: as §1

[18] = system: Enterobacter aerogenes 1402-10; assay: as above; format: cell-based; conditions: Klebsiella aerogenes, 140210, 37° C., 20 hours
Method: as §1

[19] = system: Pseudomonas aeruginosa IAM 1095; assay: as above; format: cell-based; conditions: IAM1095, 37° C., 20 hours
Method: as §1

[20] = system: Bacillus substilis ATCC6633; assay: as above; format: cell-based; conditions: ATCC6633, 20 h
Method: as §1

[21] = system: Proteus vulgaris IAM 1025; assay: as above; format: cell-based; conditions: IAM1025, 37° C., 20 hours
Method: as §1

[22] = system: Salmonella enteritidis 1891; assay: as above; format: cell-based; conditions: Salmonella enterica, 37° C., 20 hours
Method: as §1

[23] = system: Proteus morganii 1433-2; assay: as above; format: cell-based; conditions: Morganella morganii, 14332, 37° C., 20 hours
Method: as §1

[24] = Acute toxicity, mouse; set-up: species or system Mouse (ICR-strain); conditions: in vivo, observed one week
Text: Male and Female mice of ICR-strain, aged 6 weeks were used.
(§2) Litchfield-Wilcoxon method

[25] = Acute toxicity, rat; conditions: in vivo, male, observed one week
Text: as §2

[26] = system: pathogenic microorganisms; conditions: in words; from work filed as U.S. application Ser. No. 819,551; cited from earlier work
[27] = system: Citrobacter freundii 1381-3; assay: M.I.C., serial agar dilution, nutrient agar (inoculum 10^5 cells/ml); format: cell-based; conditions: 13813, 37° C., 18 hours
Method: (§3) M.I.C. test was conducted by an usual serial agar dilution method, (inoculum: 10^5 cells/ml.), using a nutrient agar which was incubated at 37° C. for 18 hours. M.I.C. value is expressed as the minimum concentration of the monopotassium salt of 3-(N-formyl-N-hydroxyamino)-trans-1-propenylphosphonic acid (mcg/ml.) which inhibits growth of microorganisms.

[28] = system: Klebsiella pneumoniae NCTC 418; assay: as above; format: cell-based; conditions: NCTC418, 37° C., 18 hours
Method: as §3

[29] = system: Serratia marcescens 1421-4; assay: as above; format: cell-based; conditions: 14214, 37° C., 18 hours
Method: as §3

[30] = system: Salmonella paratyphi A-1015; assay: as above; format: cell-based; conditions: Salmonella enterica, 37° C., 18 hours
Method: as §3

[31] = system: Salmonella typhi 0-901; assay: as above; format: cell-based; conditions: Salmonella enterica, 37° C., 18 hours
Method: as §3

[32] = system: Sarcina lutea PCI 1001; assay: as above; format: cell-based; conditions: Micrococcus luteus, PCI1001, 37° C., 18 hours
Method: as §3

[33] = system: Shigella sonnei I EW33; assay: as above; format: cell-based; conditions: IEW33, 37° C., 18 hours
Method: as §3

[34] = system: Salmonella typhimurium 1406; assay: as above; format: cell-based; conditions: Salmonella enterica, 37° C., 18 hours
Method: as §3

[35] = system: Enterobacter cloacae 1401-4; assay: as above; format: cell-based; conditions: 14014, 37° C., 18 hours
Method: as §3

[36] = system: Proteus mirabilis 1432-75; assay: as above; format: cell-based; conditions: 143275, 37° C., 18 hours
Method: as §3

[37] = system: Proteus rettgeri 1434-3; assay: as above; format: cell-based; conditions: Providencia rettgeri, 14343, 37° C., 18 hours
Method: as §3

[38] = system: Proteus inconstans 1436-21; assay: as above; format: cell-based; conditions: Providencia alcalifaciens, 143621, 37° C., 18 hours
Method: as §3

[39] = system: Shigella flexneri IaEW8; assay: as above; format: cell-based; conditions: 37° C., 18 hours
Method: as §3

[40] = system: Enterobacter aerogenes 1402-10; assay: as above; format: cell-based; conditions: Klebsiella aerogenes, 140210, 37° C., 18 hours
Method: as §3

[41] = system: Pseudomonas aeruginosa IAM 1095; assay: as above; format: cell-based; conditions: IAM1095, 37° C., 18 hours
Method: as §3

[42] = system: Proteus vulgaris IAM 1025; assay: as above; format: cell-based; conditions: IAM1025, 37° C., 18 hours
Method: as §3

[43] = system: Staphylococcus aureus FDA209PJC-1; assay: as above; format: cell-based; conditions: FDA209PJC1, 37° C., 18 hours
Method: as §3

[44] = system: Escherichia coli 1341-18(R^+); assay: as above; format: cell-based; conditions: 37° C., 18 hours
Method: as §3

[45] = system: Bacillus subtilis ATCC6633; assay: as above; format: cell-based; conditions: 37° C., 18 hours
Method: as §3

[46] = system: Salmonella enteritidis 1891; assay: as above; format: cell-based; conditions: Salmonella enterica, 37° C., 18 hours
Method: as §3

[47] = system: Proteus morganii 1433-2; assay: as above; format: cell-based; conditions: Morganella morganii, 14332, 37° C., 18 hours
Method: as §3

## O=CN(O)CCCP(=O)(O)O [monoammonium salt of 3-(N-formyl-N-hydroxyamino)propylphosphonic acid]
[1]; orally once at 1 hour
  ED50, oral administration: 0.280 mg/mouse
[1]; s.c. three times at 0, 1, 3 hours
  ED50, subcutaneous administration: 0.228 mg/mouse
[2]
  MIC: 3.13 µg/mL
[3]
  MIC: 100 µg/mL
[4]
  MIC: 100 µg/mL
[5]
  MIC: 12.5 µg/mL
[6]
  MIC: 0.39 µg/mL
[7]
  MIC: > 800 µg/mL
[8]
  MIC: ≤ 0.1 µg/mL
[9]
  MIC: 12.5 µg/mL
[10]
  MIC: 100 µg/mL
[11]
  MIC: 200 µg/mL
[12]
  MIC: 25 µg/mL
[13]
  MIC: 6.25 µg/mL
[14]
  MIC: 6.25 µg/mL
[15]
  MIC: 1.56 µg/mL
[16]
  MIC: 3.13 µg/mL
[17]
  MIC: 12.5 µg/mL
[18]
  MIC: 6.25 µg/mL
[19]
  MIC: 0.78 µg/mL
[20]
  MIC: 6.25 µg/mL
[21]
  MIC: 3.13 µg/mL
[22]
  MIC: 0.39 µg/mL
[23]
  MIC: > 800 µg/mL

## O=CN(O)CCCP(=O)(O)O [monosodium salt of 3-(N-formyl-N-hydroxyamino)propylphosphonic acid]
[24]; po, female, oral, read-out: LD50, oral administration
  LD50 at 168 h: > 11000 mg/kg
[24]; po, male, oral, read-out: LD50, oral administration
  LD50 at 168 h: 11000 mg/kg
[24]; sc, female, subcutaneous, read-out: LD50, subcutaneous administration
  LD50 at 168 h: 8270 mg/kg
[24]; sc, male, subcutaneous, read-out: LD50, subcutaneous administration
  LD50 at 168 h: 8050 mg/kg
[25]; oral, read-out: LD50, oral administration
  LD50 at 168 h: > 11000 mg/kg
[25]; sc, subcutaneous, read-out: LD50, subcutaneous administration
  LD50 at 168 h: 8000 mg/kg

## CC(=O)N(O)CCCP(=O)(O)O [FR-900098, 3-(N-acetyl-N-hydroxyamino)propylphosphonic acid]
[26]
  antimicrobial activities: antimicrobial activities against various pathogenic microorganisms

## O=CN(O)C/C=C/P(=O)(O)O [monopotassium salt of 3-(N-formyl-N-hydroxyamino)-trans-1-propenylphosphonic acid]
[27]
  MIC: 12.5 µg/mL
[28]
  MIC: 100 µg/mL
[29]
  MIC: > 100 µg/mL
[30]
  MIC: 25 µg/mL
[31]
  MIC: 0.78 µg/mL
[32]
  MIC: 0.2 µg/mL
[33]
  MIC: 25 µg/mL
[34]
  MIC: 12.5 µg/mL
[35]
  MIC: 12.5 µg/mL
[36]
  MIC: 0.39 µg/mL
[37]
  MIC: 6.25 µg/mL
[38]
  MIC: 25 µg/mL
[39]
  MIC: 50 µg/mL
[40]
  MIC: 50 µg/mL
[41]
  MIC: 1.56 µg/mL
[42]
  MIC: 1.56 µg/mL
[43]
  MIC: > 100 µg/mL
[44]
  MIC: 25 µg/mL
[45]
  MIC: 6.25 µg/mL
[46]
  MIC: 6.25 µg/mL
[47]
  MIC: > 100 µg/mL
